From patent US20180049996A1, “THERAPEUTIC AGENT FOR CHRONIC RESPIRATORY DISEASE AND COMPOSITION FOR INHIBITING CARDIAC FIBROSIS” (NIPPON HYPOX LABORATORIES INCORPORATED, priority 2015, published 2018)

Legend:
TNF-α = TNF-α level in BAL fluid (ELISA), COPD model; type: in vivo, C57BL/6N mice; settings: HTHQ 10 and 20 mg/kg/day oral; tobacco smoke 10 days + LPS; compared to COPD model group
Protocol: (§1) 6 week old male SPF C57BL/6N mice, 20 to 25 g of body weight, were purchased from CORETEC INC. (South Korea).
The tests were conducted as follows. The mice in the COPD (chronic obstructive pulmonary disease) model group of the test groups were exposed to tobacco smoke for 1 hour per day (8 cigarettes/day) for 10 days and LPS (5 μg/50 μL/mouse) was intranasally administered to the mice on day 8 after the start of the tests. […]
The mice in the test groups were euthanized 72 hours after the LPS administration and the mice in the normal control group were euthanized on day 11 after the start of the tests by intraperitoneal injection of pentobarbital (Hanrimu pharmaceutical, South Korea) at 50 mg/kg and then the bronchi were excised. […] After preparing slide samples from 100 μL of BAL cell fluid using Cytospin (4° C., 1000 rpm×5 min), the cell numbers of inflammatory cells (neutrophil, macrophages) present in the BAL fluid were counted using a Diff-Quik stain kit.
The supernatant of the BAL fluid stored was taken out of the super-cryostat, and TNF-α and IL-6 levels were measured as the levels of pro-inflammatory cytokines in the supernatant. A quantitative ELISA kit (a product from Invitrogen) and an ELISA analyzer (a product from Molecular Devices, LLC.) were used for the measurement and the measurement wavelength was 450 nm.

[1] = test system: Lung Inflammation Induced by Tobacco Smoke; test: Histopathologic examination of lungs, COPD model; type: in vivo, C57BL/6N mice; settings: HTHQ 10 and 20 mg/kg/day oral; tobacco smoke 10 days + LPS; compared to COPD model group
Protocol: as §1
The tests were conducted as follows. The mice in the COPD (chronic obstructive pulmonary disease) model group of the test groups were exposed to tobacco smoke for 1 hour per day (8 cigarettes/day) for 10 days and LPS (5 μg/50 μL/mouse) was intranasally administered to the mice on day 8 after the start of the tests. Roflumilast, the positive control substance, was orally administered to the mice in the positive control substance-administered group at 10 mg/kg body weight/day, and then they were exposed to tobacco smoke for 10 days starting from 1 hour after the administration of roflumilast, and LPS (5 μg/50 μL/mouse) was intranasally administered to the mice on day 8 after the start of the tests. Here, roflumilast is a selective phosphodiesterase 4 inhibitor and is a substance which is used as a therapeutic agent of COPD and asthma (approved in Europe and the United States, not approved in Japan). […] All the animals were euthanized on day 11 and bronchoalveolar lavage (BAL) examination and histopathologic examination of lungs were conducted. The mice in the normal control group and the test groups were fed sterile tap water and standard food for rodents during the test period. […]

[2] = test system: allergic asthma model of mice caused by ovalbumin sensitization; test: BAL inflammatory cell numbers, allergic asthma model caused by ovalbumin sensitization; type: in vivo, BALB/c female mice; settings: HTHQ 20 and 40 mg/kg/day oral, days 18 to 23; day 25; compared to OVA group
Protocol: The efficacy of the hydroquinone derivative represented by the general formula (1) described above of the present invention on asthma was studied using an allergic asthma model of mice caused by ovalbumin sensitization.
6 week old BALB/c female mice were purchased and the mice were divided into 5 groups with 5 animals per group shown in Table 3 below after habituation breeding of about 2 weeks.
The test was conducted on the schedule of sensitization, causing diseases and administration of test materials shown in FIG. 12. “IP” in FIG. 12 refers to ovalbumin sensitization treatment by the intraperitoneal administration of ovalbumin/aluminum hydroxide, and “IH” refers to inhalation exposure treatment of ovalbumin, and “PO” refers to the administration of the test materials. […]
All mice were euthanized by intraperitoneal injection of pentobarbital (Hanrimu pharmaceutical, South Korea) at 50 mg/kg and the bronchi were excised on day 25 of the test. […] After preparing slide samples from 100 μL of BAL cell fluid using Cytospin (4° C., 1000 rpm×5 min), the cell numbers of inflammatory cells (eosinophils, macrophages, lymphocytes and neutrophils) present in the BAL fluid were counted using a Diff-Quik stain kit.

## CCCCCCOc1cc(C)c(O)c(C)c1C [HTHQ, 2,3,5-trimethylhydroquinone-1-hexyl ether]
TNF-α
  TNF-α level in BAL fluid: effectively reduced
[1]
  infiltration of inflammatory cells in peribronchial lung tissue (HE stain): significantly reduced in a dose-dependent manner
[2]
  inflammatory cell numbers in BAL fluid (eosinophils, macrophages, total): significantly reduced in an HTHQ dose-dependent manner
